Laboratory results: patent US6677344B2, “Chymase inhibitor for the treatment of eosinophilia” (Daiichi Suntory Pharma Co., Ltd., priority 2000, dated 2004)
Values belong to the compound of their own block, whether it stands above or below them.

How the values were obtained:
Human heart chymase = molecular target: T1, Human heart chymase (Homo sapiens, UniProt P23946); assay: Measurement of chymase inhibitory activity; assay type: biochemical; details: substrate Suc-Ala-Ala-Pro-Phe-MCA, 30° C., pH 7.5
T1 construct: Human heart chymase was purified according to the method of Urata et al; from tissue; host or cells: human heart
T1 sequence (P23946 22-247): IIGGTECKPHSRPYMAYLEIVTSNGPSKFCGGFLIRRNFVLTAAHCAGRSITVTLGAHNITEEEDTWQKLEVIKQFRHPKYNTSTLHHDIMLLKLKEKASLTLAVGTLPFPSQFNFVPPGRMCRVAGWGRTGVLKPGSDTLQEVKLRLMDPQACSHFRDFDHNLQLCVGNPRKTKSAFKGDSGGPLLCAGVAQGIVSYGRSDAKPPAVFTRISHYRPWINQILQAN
Method: Human heart chymase was purified according to the method of Urata et al. (J. Biol. Chem., 1990, 265, 22348). The inhibitory activity of the compound of the present invention was determined as follows. Purified enzyme was diluted with 0.1M tris-HCl buffer (pH=7.5), 1M sodium chloride, and 0.01% TritonX-100 to obtain an enzyme solution having appropriate concentrations. Suc-Ala-Ala-Pro-Phe-MCA (Peptide Institute Inc.) was dissolved in 10 mM dimethyl sulfoxide (hereinafter referred to as DMSO) and diluted 20-fold with 0.1M Tris-HCl buffer (pH 7.5) containing 1M sodium chloride and 0.01% TritonX-100 to an appropriate concentration to prepare substrate solution.
5 μl of the test sample in DMSO was added to 75 μl of the enzyme solution and preincubated at 30° C. for 10 minutes. Then, 20 μl of the substrate solution was added to the test sample-enzyme mixture, and incubated at 30° C. Ten minutes later, 50 μl of 30% acetic acid was added to stop the enzymatic reaction, and the amount of AMC formed was determined using a fluorophotometer. At the same time, 5 μl of DMSO in stead of the test sample was added and reacted simultaneously as a control. The inhibitory activity to human chymase was calculated based on the value of the control, and then the inhibition percentage and the 50% inhibition concentration (IC50) were determined.

[1] = test system: eosinophils in the peripheral blood of Nb infected mice; assay: Increase in eosinophils of mice infected with Nippostrongylus brasiliensis (Nb); assay type: in vivo
Method: (§1) Male BALB/c mice (7-weeks old) were transcutaneously inflected with 750 parasitic worms of Nippostrongylus brasiliensis (Nb) (third stage larvae) in accordance with an already reported method (Int. Arch. Allergy Immunol. 117, Suppl. 1, 2, 1998). After two weeks, the number of eosinophils in the peripheral blood and the total number of leukocytes in the peripheral blood were measured. Further, at day 7 and day 10, the number of eggs in the feces was measured. The chymase inhibitor (Compound 18) was dissolved in saline and injected intraperitoneally in 0.2 ml amounts once a day continuously from the day before infection until the end of the test. Note that the control group was administered only saline. The number of cells in the peripheral blood was measured by sampling peripheral blood from the eye cavity. The eosinophils were stained with a Hinkelman's solution, then counted under a microscope. Further, the total number of leukocytes was measured under a microscope after staining with by a Turk's solution. The number of eggs in the feces was determined by obtaining individual feces of the mice, measuring their weight, then dissolving them in 1 ml of 10% formalin, counting the number of eggs in the feces solution under a microscope, then expressing the result as the number of eggs per gram of feces.

[2] = test system: Nippostrongylus brasiliensis (Nb); assay: Number of eggs in feces in Nb infected mice; assay type: in vivo
Method: as §1

[3] = 50 mg/kg, intraperitoneal once a day, BALB/c mice, 2 weeks after Nb infection

IC50 (Human heart chymase): 300 nM
Structure (SMILES): CC(C(=O)O)C(=O)Nc1cccc(S(=O)(=O)n2c(=O)[nH]c3cc(Cl)ccc3c2=O)c1 (stereo not shown) [Compound 13, 2-{3-[(7-chloro-2,4(1H,3H)-quinazolinedion-3-yl)sulfonyl]phenylaminocarbonyl}propionic acid]

Structure (SMILES): Nc1cc(S(=O)(=O)n2c(=O)[nH]c3cc(Cl)ccc3c2=O)ccc1C(=O)[O-].[Na+] [Compound 18, 4-[(7-chloro-2,4(1H,3H)-quinazolinedion-3-yl)sulfonyl]anthranilic acid monosodium salt]
Number of eosinophils in peripheral blood, 2 weeks after infection ([1]; 2 mg/kg, intraperitoneal once a day, BALB/c mice, 2 weeks after Nb infection): 1036 ± 240 no./mm^3
Number of eosinophils in peripheral blood, before infection ([1]; 2 mg/kg, intraperitoneal once a day, BALB/c mice): 30 ± 12 no./mm^3
Number of eosinophils in peripheral blood, 2 weeks after infection ([1]; 10 mg/kg, intraperitoneal once a day, BALB/c mice, 2 weeks after Nb infection): 818 ± 155 no./mm^3
Number of eosinophils in peripheral blood, before infection ([1]; 10 mg/kg, intraperitoneal once a day, BALB/c mice): 36 ± 11 no./mm^3
Number of eosinophils in peripheral blood, 2 weeks after infection [1, 3]: 360 ± 66 no./mm^3
Total no. of leukocytes in peripheral blood 2 weeks after infection [1, 3]: 5820 ± 460 no./mm^3
Number of eosinophils in peripheral blood, before infection ([1]; 50 mg/kg, intraperitoneal once a day, BALB/c mice): 32 ± 16 no./mm^3
Effect on Nb-induced increase in the number of eosinophils ([1]; 50 mg/kg/day, Dunnett's test, 2 weeks after infection): significantly suppressed
Effect on the total number of leukocytes in the peripheral blood ([1]; Nb infected mice, 2 weeks after infection): little effect
No. of Nb eggs in gram of feces, Day 7 ([2]; 50 mg/kg, intraperitoneal once a day, day 7 after Nb infection): 30541 ± 12501 eggs per gram of feces
No. of Nb eggs in gram of feces, Day 10 ([2]; 50 mg/kg, intraperitoneal once a day, day 10 after Nb infection): 558 ± 1248 eggs per gram of feces
Difference in number of eggs of Nb versus group not administered ([2]; day 7 or day 10 after Nb infection): almost no difference
